From US20160362416A1, “ANTIVIRAL COMPOUNDS” (Gilead Sciences, Inc., priority 2012, published 2016)

Columns and labels:
[1] = system: stable HCV 2a JFH-1 Rluc replicon cells (L31 present in NS5A); experiment: HCV genotype 2a JFH-1 RLuc replicon reporter assay; type: cell-based; details: Hepatitis C virus, 72 h, read-out: 2a JFH (nM)
[2] = IV and PO single dose pharmacokinetic studies in SD rats; type: in vivo; details: Sprague-Dawley, rat, plasma, male SD rats, IV infusion 1 mg/kg, oral gavage 2 mg/kg, read-out: Rat % F
Procedure, shortened: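 Fasted male Sprague-Dawley rats (n=3/group) dosed IV by 30-min jugular infusion at 1 mg/kg or by oral gavage at 2 mg/kg, in ethanol/PEG 400 vehicles at pH 2.0–2.2. Serial plasma to 24 h quantified by LC/MS/MS (SRM); non-compartmental analysis, linear-trapezoidal AUC, %F as oral vs IV AUC.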

[3] = system: Q30R in genotype 1a NS5A replicon; experiment: Resistance mutant replicon assay, genotype 1a NS5A Q30R; type: cell-based, HCV; details: Hepatitis C virus, read-out: 1a Q30R (nM)
Description: Evaluation of cell-based anti-HCV activity: Antiviral potency (EC50) was determined using a Renilla luciferase (RLuc)-based HCV replicon reporter assay. To perform the assay for genotype 1 and 2a JFH-1, stable HCV 1a RLuc replicon cells (harboring a dicistronic genotype 1a H77 replicon that encodes a RLuc reporter), stable HCV lb RLuc replicon cells (harboring a dicistronic genotype 1b Conl replicon that encodes a RLuc reporter), or stable HCV 2a JFH-1 Rluc replicon cells (harboring a dicistronic genotype 2a JFH-1 replicon that encodes a RLuc reporter; with L31 present in NS5A) were dispensed into 384-well plates for EC50 assays. To perform the assay for genotype 2a (with M31 present in NS5A) or 2b, NS5A chimeric genotype 2a JFH-1 replicons that encodes a RLuc-Neo reporter and either genotype 2a J6 strain NS5A gene or genotype 2b MD2b-1 strain NS5A gene (both with M31 present) respectively, were either transiently transfected (t) into Huh-Lunet cells or were established as stably replicating replicon cells (s) is provided. Either cells were dispensed into 384-well plates for EC50 assays. To perform the assay for genotype 3 and 4, NS5A chimeric genotype 1b Conl replicons that encodes a Pi-RLuc reporter and either genotype 3a S52 strain NS5A gene or genotype 4a ED43 strain NS5A gene respectively, were transiently transfected (t) into Huh-Lunet cells, which were subsequently dispensed into 384-well plates. Compounds were dissolved in DMSO at a concentration of 10 mM and diluted in DMSO either manually or using an automated pipeting instrument. Serially 3-fold diluted compounds were either manually mixed with cell culture media and added to the seeded cells or directly added to the cells using an automated instrument. DMSO was used as a negative (solvent; no inhibition) control, and the protease inhibitor ITMN-191 was included at a concentration >100×EC50 as a positive control. 72 hours later, cells were lysed and Renilla luciferase activity quantified as recommended by the manufacturer (Promega-Madison, Wis.). Non-linear regression was performed to calculate EC50 values.
To determine the antiviral potency (EC50) against resistance mutants, resistance mutations, including M28T, Q30R, Q30H, Q30E, L31M, Y93C, Y93H, and Y93N in genotype 1a NS5A, Y93H and L31V/Y93H in genotype 1b NS5A, and Y93H for in genotype 3a NS5A, were introduced individually into either 1a Pi-Rluc or 1b Pi-Rluc replicons by site directed mutagenesis. Replicon RNA of each resistant mutant was transiently transfected into Huh-7-derived cured-51 cells and antiviral potency was determined on these transfected cells as described above.

[4] = system: NS5A chimeric genotype 2a JFH-1 replicon with genotype 2b MD2b-1 strain NS5A gene (M31); experiment: HCV genotype 2b NS5A chimeric replicon assay, transient (t); type: cell-based; details: Hepatitis C virus, 72 h, read-out: 2b (t) (nM)
Procedure, shortened: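 Stable 1b Con1 RLuc replicon cells, or Huh-Lunet cells transiently transfected with chimeric replicons (Con1 backbone carrying 3a S52 or 4a ED43 NS5A; JFH-1 backbone carrying 2b MD2b-1 NS5A, M31), treated with 3-fold dilutions for 72 h. Renilla luciferase read after lysis; EC50 by non-linear regression.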

Compound | EC50 [1] | bioavailability [2] | EC50 [3] | EC50 [4]
CC[C@H]1CC[C@@H](c2nc3ccc4cc5c(cc4c3[nH]2)OCc2cc(-c3cnc([C@@H]4CC[C@H](C)N4C(=O)[C@@H](NC(=O)OC)C(C)C)[nH]3)ccc2-5)N1C(=O)[C@@H](NC(=O)OC)C1CCOCC1 [Comp 3, reference compound] | 0.019 nM | 46.6% | – | –
CC[C@H](C)[C@H](NC(=O)OC)C(=O)N1[C@@H](C)CC[C@H]1c1ncc(-c2ccc3c(c2)COc2cc4c(ccc5nc([C@@H]6CC[C@H](C)N6C(=O)[C@@H](NC(=O)OC)C6CCOCC6)[nH]c54)cc2-3)[nH]1 [Comp 4, reference compound] | 0.018 nM | 22.1% | – | –
CC[C@H](C)[C@H](NC(=O)OC)C(=O)N1[C@@H](C)CC[C@H]1c1nc2ccc3cc4c(cc3c2[nH]1)OCc1cc(-c2cnc([C@@H]3CC[C@H](C)N3C(=O)[C@@H](NC(=O)OC)C3CCOCC3)[nH]2)ccc1-4 [Comp 12, reference compound] | 0.009 nM | 5.64% | 1.28 nM | –
COC(=O)N[C@H](C(=O)N1[C@@H](C)CC[C@H]1c1nc2ccc3cc4c(cc3c2[nH]1)OCc1cc(-c2cnc([C@@H]3CC[C@H](C)N3C(=O)[C@@H](NC(=O)OC)[C@H]3C[C@@H](C)O[C@@H](C)C3)[nH]2)ccc1-4)C(C)C [Example AO, Methyl {(2S)-1-[(2S,5S)-2-(9-{2-[(2S,5S)-1-{(2S)-2-[(2R,6S)-2,6-dimethyltetrahydro-2H-pyran-4-yl]-2-[(methoxycarbonyl)amino]acetyl}-5-methylpyrrolidin-2-yl]-1H-imidazol-5-yl}-1,11-dihydroisochromeno[4′,3′:6,7]naphtho[1,2-d]imidazol-2-yl)-5-methylpyrrolidin-1-yl]-3-methyl-1-oxobutan-2-yl}carbamate] | 0.008 nM | 50.3% | – | 0.015 nM
COC(=O)N[C@H](C(=O)N1[C@@H](C)CC[C@H]1c1ncc(-c2ccc3c(c2)COc2cc4c(ccc5nc([C@@H]6CC[C@H](C)N6C(=O)[C@@H](NC(=O)OC)[C@H]6C[C@@H](C)O[C@@H](C)C6)[nH]c54)cc2-3)[nH]1)C(C)C [Example AM, Methyl {(2S)-1-[(2S,5S)-2-(5-{2-[(2S,5S)-1-{(2S)-2-[(2R,6S)-2,6-dimethyltetrahydro-2H-pyran-4-yl]-2-[(methoxycarbonyl)amino]acetyl}-5-methylpyrrolidin-2-yl]-1,11-dihydroisochromeno[4′,3′:6,7]naphtho[1,2-d]imidazol-9-yl}-1H-imidazol-2-yl)-5-methylpyrrolidin-1-yl]-3-methyl-1-oxobutan-2-yl}carbamate] | 0.005 nM | 21.9% | – | 0.008 nM
COC(=O)N[C@H](C(=O)N1[C@@H](C)CC[C@H]1c1nc2ccc3cc4c(cc3c2[nH]1)OCc1cc(-c2cnc([C@@H]3CC[C@H](C)N3C(=O)[C@@H](NC(=O)OC)C3C[C@@H](C)O[C@H](C)C3)[nH]2)ccc1-4)C(C)C (stereo partly drawn) [Example AS] | 0.028 nM | 17.4% | – | 0.026 nM
COC(=O)N[C@H](C(=O)N1[C@@H](C)CC[C@H]1c1ncc(-c2ccc3c(c2)COc2cc4c(ccc5nc([C@@H]6CC[C@H](C)N6C(=O)[C@@H](NC(=O)OC)C6C[C@@H](C)O[C@H](C)C6)[nH]c54)cc2-3)[nH]1)C1C[C@@H](C)O[C@H](C)C1 (stereo partly drawn) [Example AU, Methyl {(1S)-1-[(2R,6R)-2,6-dimethyltetrahydro-2H-pyran-4-yl]-2-[(2S,5S)-2-(5-{2-[(2S,5S)-1-{(2S)-2-[(2R,6R)-2,6-dimethyltetrahydro-2H-pyran-4-yl]-2-[(methoxycarbonyl)amino]acetyl}-5-methylpyrrolidin-2-yl]-1,11-dihydroisochromeno[4′,3′:6,7]naphtho[1,2-d]imidazol-9-yl}-1H-imidazol-2-yl)-5-methylpyrrolidin-1-yl]-2-oxoethyl}carbamate] | 0.013 nM | 16.4% | – | 0.017 nM
COC(=O)N[C@H](C(=O)N1[C@@H](C)CC[C@H]1c1ncc(-c2ccc3c(c2)COc2cc4c(ccc5nc([C@@H]6CC[C@H](C)N6C(=O)[C@@H](NC(=O)OC)C6CC(C)O[C@H](C)C6)[nH]c54)cc2-3)[nH]1)C(C)C (stereo in doubt) [Example AQ, Methyl {(2S)-1-[(2S,5S)-2-(5-{2-[(2S,5S)-1-{(2S)-2-[(2R,6R)-2,6-dimethyltetrahydro-2H-pyran-4-yl]-2-[(methoxycarbonyl)amino]acetyl}-5-methylpyrrolidin-2-yl]-1,11-dihydroisochromeno[4′,3′:6,7]naphtho[1,2-d]imidazol-9-yl}-1H-imidazol-2-yl)-5-methylpyrrolidin-1-yl]-3-methyl-1-oxobutan-2-yl}carbamate] | 0.016 nM | 22.9% | – | 0.016 nM
CC[C@H](C)[C@H](NC(=O)OC)C(=O)N1[C@@H](C)CC[C@H]1c1ncc(-c2ccc3c(c2)COc2cc4c(ccc5nc([C@@H]6CC[C@H](C)N6C(=O)[C@@H](NC(=O)OC)C6C[C@@H](C)O[C@H](C)C6)[nH]c54)cc2-3)[nH]1 (stereo partly drawn) [Example AA, Methyl {(2S,3S)-1-[(2S,5S)-2-(5-{2-[(2S,5S)-1-{(2S)-2-[(2R,6R)-2,6-dimethyltetrahydro-2H-pyran-4-yl]-2-[(methoxycarbonyl)amino]acetyl}-5-methylpyrrolidin-2-yl]-1,11-dihydroisochromeno[4′,3′:6,7]naphtho[1,2-d]imidazol-9-yl}-1H-imidazol-2-yl)-5-methylpyrrolidin-1-yl]-3-methyl-1-oxopentan-2-yl}carbamate] | 0.011 nM | 28.1% | – | 0.014 nM
COC[C@H]1C[C@@H](c2ncc(-c3ccc4c(c3)COc3cc5c(ccc6nc([C@@H]7CC[C@H](C)N7C(=O)[C@@H](NC(=O)OC)C7C[C@@H](C)O[C@H](C)C7)[nH]c65)cc3-4)[nH]2)N(C(=O)[C@@H](NC(=O)OC)C2C[C@@H](C)O[C@H](C)C2)C1 (stereo partly drawn) [Example BH, Methyl {(1S)-1-[(2R,6R)-2,6-dimethyltetrahydro-2H-pyran-4-yl]-2-[(2S,5S)-2-(9-{2-[(2S,4S)-1-{(2S)-2-[(2R,6R)-2,6-dimethyltetrahydro-2H-pyran-4-yl]-2-[(methoxycarbonyl)amino]acetyl}-4-(methoxymethyl)pyrrolidin-2-yl]-1H-imidazol-5-yl}-1,11-dihydroisochromeno[4′,3′:6,7]naphtho[1,2-d]imidazol-2-yl)-5-methylpyrrolidin-1-yl]-2-oxoethyl}carbamate] | 0.013 nM | 2.7% | – | –
